Patent US20250108123A1, “COMPOUND-LINKER […] COMPOUNDS USEFUL AS STING AGONISTS AND USES THEREOF” (priority 2021, published 2025)
Read-outs that look alike come from different tables or passages of the source.

Target: human STING WT (Homo sapiens (Human), UniProt Q86WV6)
Experiment: biochemical
Format: binding
Protocol: Cisbio Bioassays' human STING WI binding assay (#64BDSTGPEG & 64BDSTGPEH, Cisbio) is for quantitative measurement of human STING WI ligand using HTRF® technology.
Negative control: Dispense 5 μL of diluent into each negative control well. Standard: Dispense 5 μL of each Human STING WI Standard 2′3′-cGAMP (Std 0-Std 7) into each standard well. Compound: Dispense 5 μL of compound into each compound well.
Negative control: Add 5 μL of detection buffer to all wells. Other wells: Add 5 μL of human STING WT protein 6His-tagged protein to all wells.
Add 10 μL of premixed STING WT ligand d2 reagent and 6His Tb antibody working solution to all wells.
Seal the plate and incubate 3 hours at RT or at Over Night if necessary.
Remove the plate sealer and read on an HTRF® compatible reader (PerkinElmer, USA). Results were analyzed with a two-wavelength signal ratio: intensity (665 nm)/intensity (620 nm).
Cisbio Bioassays' human STING WT binding assay (#64BDSTGPEG & 64BDSTGPEH, Cisbio) is for quantitative measurement of human STING WT ligand using HTRF® technology.
Negative control: Dispense 5 μL of diluent into each negative control well. Standard: Dispense 5 μL of each Human STING WT Standard 2′3′-cGAMP (Std 0—Std 7) into each standard well. Compound: Dispense 5 μL of compound into each compound well.
[formula] • Fit the data in GraphPad to obtain IC50 values using equation (2)

[1] = HTRF, human STING WT 6His-tagged protein, incubation 3 hours at RT, read-out: hSTING WT binding IC50/nM
[2] = human STING WT, HTRF binding assay, read-out: hSTING WT binding IC50

Sequence of human STING WT (Q86WV6 whole entry): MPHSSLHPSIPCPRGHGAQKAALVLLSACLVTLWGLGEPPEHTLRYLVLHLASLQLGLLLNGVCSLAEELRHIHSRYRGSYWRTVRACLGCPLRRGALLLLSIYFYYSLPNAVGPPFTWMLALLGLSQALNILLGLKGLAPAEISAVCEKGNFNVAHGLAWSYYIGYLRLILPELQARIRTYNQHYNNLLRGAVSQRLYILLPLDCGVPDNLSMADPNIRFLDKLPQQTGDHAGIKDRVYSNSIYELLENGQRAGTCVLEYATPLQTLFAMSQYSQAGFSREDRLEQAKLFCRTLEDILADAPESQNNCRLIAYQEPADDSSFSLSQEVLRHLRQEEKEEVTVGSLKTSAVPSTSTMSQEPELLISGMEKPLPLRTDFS

IC50 [1] [nM] | SMILES | also measured
> 150 | COc1cc2c(cc1CN(C)Cc1cc3c(cc1OC)CN(C(=O)CCC(=O)O)C3)CN(C(=O)CCC(=O)O)C2 [Example I-7, 4,4′-(((methylazanediyl)bis(methylene))bis(6-methoxyisoindoline-5,2-diyl))bis(4-oxobutanoic acid)] | 
> 150 | COc1cc2c(cc1OCCCOc1c(OC)cc3c(c1Cl)CN(C(=O)CCC(=O)O)C3)CN(C(=O)CCC(=O)O)C2 [Example I-8, 4-(5-(3-((2-(3-carboxypropanoyl)-4-chloro-6-methoxyisoindolin-5-yl)oxy)propoxy)-6-methoxyisoindolin-2-yl)-4-oxobutanoic acid] | 
> 150 | C=C(COc1c(OC)cc2c(c1Cl)CN(C(=O)CCC(=O)O)C2)COc1c(OC)cc2c(c1Cl)CN(C(=O)CCC(=O)O)C2 [Example I-11, 4,4′-(((2-methylenepropane-1,3-diyl)bis(oxy))bis(4-chloro-6-methoxyisoindoline-5,2-diyl))bis(4-oxobutanoic acid)] | 
> 150 | COc1cc2c(c(Cl)c1OCCCOc1c(OC)cc3c(c1Cl)CN(C(=O)CCC(=O)O)C3)CN(C(=O)CCC(=O)O)C2 [Example I-12, 4,4′-((propane-1,3-diylbis(oxy))bis(4-chloro-6-methoxyisoindoline-5,2-diyl))bis(4-oxobutanoic acid)] | 
 | COc1cc2c(cc1OCCCOc1cc3cc(C(=O)CCC(=O)O)sc3cc1O)CN(C(=O)CCC(=O)O)C2 [II-7, sodium 4-(5-(3-((2-(3-carboxylatopropanoyl)-6-hydroxybenzo[b]thiophen-5-yl)oxy)propoxy)-6-methoxyisoindolin-2-yl)-4-oxobutanoate] | IC50: 0.36 nM
 | COc1cc2c(cc1OCCCOc1nc3cc(C(=O)CCC(=O)O)sc3cc1OC)CN(C(=O)CCC(=O)O)C2 [II-8, sodium 4-(5-(3-((2-(3-carboxylatopropanoyl)-6-methoxyisoindolin-5-yl)oxy)propoxy)-6-methoxythieno[3,2-b]pyridin-2-yl)-4-oxobutanoate] | IC50 [2]: 1.04 nM
 | COc1cc2c(cc1OCCCOc1cc3cc(C(=O)CCC(=O)O)sc3cc1Br)CN(C(=O)CCC(=O)O)C2 [II-9, 4-(5-(3-((6-bromo-2-(3-carboxypropanoyl)benzo[b]thiophen-5-yl)oxy)propoxy)-6-methoxyisoindolin-2-yl)-4-oxobutanoic acid] | IC50: 0.65 nM
 | C=C(COc1c(OC)cc2c(c1Cl)CN(C(=O)CCC(=O)O)C2)COc1c(OC)cc2sc(C(=O)CCC(=O)O)cc2c1F [II-16, 4-(5-((2-(((2-(3-carboxypropanoyl)-4-chloro-6-methoxyisoindolin-5-yl)oxy)methyl)allyl)oxy)-4-fluoro-6-methoxybenzo[b]thiophen-2-yl)-4-oxobutanoic acid] | IC50 [2]: > 150 nM
